Results from the supplement of paper PMC4862054.

What was measured:
MDA-MB-436 [1] = settings: 72 h
Procedure, shortened: (§1)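 Compound dissolved in 5 µl medium was placed in 384-well plates before 20 µl of breast cancer cell suspension was added, and the plates were incubated for 72 h. Cells then received 2.5 µl CellTiter-Blue for 2 h at 37 °C, and fluorescence was read at 560/590 nm. EC50 values come from percent-inhibition dose-response fits that were censored at the highest concentration, with plates normalised to vehicle and a positive kill control and rows with a zero drug sensitivity score excluded.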

BT-474 [2] = settings: 72 h
Procedure, shortened: as §1

BT-549 = settings: 72 h
Procedure, shortened: as §1

SK-BR-3 = settings: 72 h
Procedure, shortened: as §1

MDA-MB-231 [3] = settings: 72 h
Procedure, shortened: as §1

MDA-MB-468 = settings: 72 h
Procedure, shortened: as §1

CAL-120 [4] = settings: 72 h
Procedure, shortened: as §1

CAL-85-1 [5] = settings: 72 h
Procedure, shortened: as §1

HDQ-P1 [6] = settings: 72 h
Procedure, shortened: as §1

CAL-51 [7] = settings: 72 h
Procedure, shortened: as §1

CAL-148 [8] = settings: 72 h
Procedure, shortened: as §1

HDQ-P1 [9] = settings: 72 h; remark: listed apart in the source
Procedure, shortened: (§2)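 Two sequential readouts followed a 72 h incubation of breast cancer cell lines with compound at 5 concentrations in 10-fold steps over a compound-specific 10,000-fold range: CellTox Green fluorescence (485/520 nm) for cell death, then CellTiter-Glo luminescence, after 10 min at room temperature, for viability. Each plate was normalised to 0.1 % DMSO and a positive kill control. Dose-response curves were fitted for EC50, censored at the top concentration.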

HCC1599 [10] = settings: 72 h
Procedure, shortened: as §2

CAL-148 [11] = settings: 72 h; remark: listed apart in the source
Procedure, shortened: as §2

HCC1143 [12] = settings: 72 h
Procedure, shortened: as §2

DU-4475 [13] = experiment: normalised viability (% of control), CellTiter-Blue; higher = more viable cells (about 100 = DMSO control); settings: incubation time: 72 h
Procedure, shortened: (§3)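 384-well plates were pre-loaded with compound in 5 µl medium before 20 µl of breast cancer cell suspension was seeded. Following 72 h incubation, 2.5 µl CellTiter-Blue reagent was added for 2 h at 37 °C. Fluorescence was read at 560/590 nm and plates were normalised to vehicle (100) and a positive kill control (0), checked by Z'-factor. Normalised viability is reported at a single listed concentration of the series.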

BT-474 [14] = experiment: as above; settings: incubation time: 72 h
Procedure, shortened: as §3

CAL-148 [15] = experiment: as above; settings: incubation time: 72 h
Procedure, shortened: as §3

CAL-85-1 [16] = settings: 72 h; remark: listed apart in the source
Procedure: (§4)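 Drug sensitivity and resistance testing (DSRT) of breast cancer cell lines in 384-well plates, 5 concentrations in 10-fold dilutions over a compound-specific 10,000-fold range. After 72 h, cytotoxicity was read by CellTox Green fluorescence and viability by CellTiter-Glo luminescence (multiplexed), normalised to DMSO and benzethonium chloride controls. EC50 is the inflection point of the fitted dose-response curve (bottom asymptote free, so it can be relative for partial curves) and is censored at the highest tested concentration. Rows with DSS 0 (no meaningful response) were excluded.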

HDQ-P1 [17] = settings: 72 h; remark: listed apart in the source
Procedure: as §4

MDA-MB-436 [18] = settings: 72 h; remark: listed apart in the source
Procedure: as §4

BT-474 [19] = settings: 72 h; remark: listed apart in the source
Procedure: as §4

CAL-51 [20] = settings: 72 h; remark: listed apart in the source
Procedure: as §4

HCC1937 = settings: 72 h
Procedure, shortened: as §1

MFM-223 [21] = settings: 72 h
Procedure, shortened: as §1

Hs578T [22] = settings: 72 h
Procedure, shortened: as §1

HCC1599 [23] = settings: 72 h; remark: listed apart in the source
Procedure, shortened: as §1

HCC1143 [24] = settings: 72 h; remark: listed apart in the source
Procedure, shortened: as §1

DU-4475 [25] = settings: 72 h
Procedure, shortened: as §1

MFM-223 [26] = settings: 72 h; remark: listed apart in the source
Procedure, shortened: as §2

DU-4475 [27] = settings: 72 h; remark: listed apart in the source
Procedure, shortened: as §2

Hs578T [28] = settings: 72 h; remark: listed apart in the source
Procedure: as §4

MDA-MB-231 [29] = settings: 72 h; remark: listed apart in the source
Procedure: as §4

CAL-148 [30] = settings: 72 h; remark: listed apart in the source
Procedure: as §4

CAL-120 [31] = settings: 72 h; remark: listed apart in the source
Procedure: as §4

SMILES | EC50, CellTiter-Blue viability (MDA-MB-436 [1]) [µM] | EC50, CellTiter-Blue viability (BT-474 [2]) [µM] | EC50, CellTiter-Blue viability (BT-549) [µM] | EC50, CellTiter-Blue viability (SK-BR-3) [µM] | EC50, CellTiter-Blue viability (MDA-MB-231 [3]) [µM] | EC50, CellTiter-Blue viability (MDA-MB-468) [µM] | EC50, CellTiter-Blue viability (CAL-120 [4]) [µM] | EC50, CellTiter-Blue viability (CAL-85-1 [5]) [µM] | EC50, CellTiter-Blue viability (HDQ-P1 [6]) [µM] | EC50, CellTiter-Blue viability (CAL-51 [7]) [µM] | EC50, CellTiter-Blue viability (CAL-148 [8]) [µM] | EC50, CellTiter-Glo (HDQ-P1 [9]) [µM] | EC50, CellTiter-Glo (HCC1599 [10]) [µM] | EC50, CellTiter-Glo (CAL-148 [11]) [µM] | EC50, CellTiter-Glo (HCC1143 [12]) [µM] | normalised viability (DU-4475 [13]; 3 nM) [%] | normalised viability (BT-474 [14]; 10 nM) [%] | normalised viability (CAL-148 [15]; 3 nM) [%] | EC50, CellTox Green (CAL-85-1 [16]) [µM] | EC50, CellTox Green (HDQ-P1 [17]) [µM] | EC50, CellTox Green (MDA-MB-436 [18]) [µM] | EC50, CellTox Green (BT-474 [19]) [µM] | EC50, CellTox Green (CAL-51 [20]) [µM] | EC50, CellTiter-Blue viability (HCC1937) [µM] | EC50, CellTiter-Blue viability (MFM-223 [21]) [µM] | EC50, CellTiter-Blue viability (Hs578T [22]) [µM] | EC50, CellTiter-Blue viability (HCC1599 [23]) [µM] | EC50, CellTiter-Blue viability (HCC1143 [24]) [µM] | EC50, CellTiter-Blue viability (DU-4475 [25]) [µM] | EC50, CellTiter-Glo (MFM-223 [26]) [µM] | EC50, CellTiter-Glo (DU-4475 [27]) [µM] | normalised viability (DU-4475 [13]; 0.3 nM) [%] | normalised viability (BT-474 [14]; 1 nM) [%] | normalised viability (CAL-148 [15]; 0.3 nM) [%] | EC50, CellTox Green (Hs578T [28]) [µM] | EC50, CellTox Green (MDA-MB-231 [29]) [µM] | EC50, CellTox Green (CAL-148 [30]) [µM] | EC50, CellTox Green (CAL-120 [31]) [µM]
CN1CCN(CCOc2cc(OC3CCOCC3)c3c(Nc4c(Cl)ccc5c4OCO5)ncnc3c2)CC1 [Saracatinib] | > 10 | 1.54 | 1.51 | 6.75 | 0.0132 | 1.41 | 0.567 | 0.757 | 0.615 | 0.7 | 0.447 | 0.541 | 5.9 | 2.55 | 1.33 | 96.6 | 100 | 77.1 | 2.94 | 6.61 | 1.62 | 8.13 | 0.371 | – | – | – | – | – | – | – | – | – | – | – | – | – | – | –
Cn1cncc1[C@@](N)(c1ccc(Cl)cc1)c1ccc2c(c1)c(-c1cccc(Cl)c1)cc(=O)n2C [Tipifarnib] | – | 1.45 | 3.73 | 0.539 | 0.0978 | 5.59 | 0.0555 | 0.0331 | 0.0166 | 1.5 | 0.033 | 0.106 | 8.63 | 0.38 | – | 99.4 | 109 | 92.2 | 4.74 | – | – | – | 0.0199 | 0.101 | 1.01 | 4.4 | 0.151 | 0.0077 | 0.0591 | 5.05 | 0.412 | – | – | – | – | – | – | –
O=C1NC(=O)[C@@H](c2cn3c4c(cccc24)CCC3)[C@@H]1c1c[nH]c2ccccc12 [Tivantinib] | 0.0435 | 0.613 | 0.34 | 0.597 | 0.676 | 0.578 | 0.398 | 0.543 | – | 0.674 | 0.759 | – | 0.973 | 0.81 | > 1 | – | – | – | 0.266 | – | – | – | 0.671 | 0.099 | – | 0.592 | 0.331 | – | 0.847 | – | 0.222 | 107 | 127 | 97.9 | 0.0966 | 0.474 | 0.00667 | 0.399
